Measured values from the NIST ThermoML archive (doi:10.1016/j.jct.2014.03.021).
Numbers after ± are expanded uncertainties.

Assay: xn = mol fraction of the nth substance listed
Conditions: 101 kPa, Liquid; for electrical conductivity: Alternating current cell with electrodes; for speed of sound: Frequency=3 MHz, Sing-around technique in a fixed-path interferometer; for mass density: Vibrating tube method

C[C@H](O)C(=O)[O-].C[N+](C)(C)CCO + O
Conditions	electrical conductivity [S/m]	mass density [kg/m3]	speed of sound [m/s]
293.15 K, x1 = 0.0258	3 ± 0.18	1036.96 ± 0.43	1660.5 ± 2.3
293.15 K, x1 = 0.0511	2.99 ± 0.18	1063.09 ± 0.41	1783.4 ± 2.2
293.15 K, x1 = 0.074	2.55 ± 0.15	1083.32 ± 0.32	1872.8 ± 1.8
293.15 K, x1 = 0.1027	1.91 ± 0.12	1098.55 ± 0.25	1930.6 ± 1.6
293.15 K, x1 = 0.1443	–	1111.86 ± 0.29	1988.4 ± 1.6
293.15 K, x1 = 0.1965	0.806 ± 0.048	1122.77 ± 0.41	1987.8 ± 1.7
293.15 K, x1 = 0.2705	–	1132.07 ± 0.66	1989.4 ± 2
293.15 K, x1 = 0.2957	0.344 ± 0.021	1133.96 ± 0.76	1985.2 ± 2.1
293.15 K, x1 = 0.3897	–	1138.61 ± 1.2	1975.3 ± 2.5
293.15 K, x1 = 0.5347	0.079 ± 0.005	1140.95 ± 2.1	1955.9 ± 3.1
293.15 K, x1 = 0.6044	0.059 ± 0.004	1141.68 ± 2.7	1952.1 ± 3.4
293.15 K, x1 = 0.6931	0.037 ± 0.002	1141.39 ± 3.5	1942.5 ± 3.8
293.15 K, x1 = 0.7565	–	1141.84 ± 4.1	1943.3 ± 4
293.15 K, x1 = 0.798	0.018 ± 0.001	–	–
293.15 K, x1 = 0.8375	–	1142.39 ± 5	1942.6 ± 4.4
293.15 K, x1 = 0.8996	0.01 ± 0.001	1142.96 ± 5.8	1938.8 ± 4.7
293.15 K, x1 = 0.94	–	1143.25 ± 6.3	1945.2 ± 4.9
293.15 K, x1 = 0.9611	–	1143.37 ± 6.6	1944.8 ± 5
298.15 K, x1 = 0.0258	3.35 ± 0.2	1035.09 ± 0.42	1665.3 ± 2.2
298.15 K, x1 = 0.0511	3.42 ± 0.2	1060.72 ± 0.4	1781.5 ± 2.1
298.15 K, x1 = 0.074	2.85 ± 0.17	1080.6 ± 0.31	1866 ± 1.8
298.15 K, x1 = 0.1027	2.29 ± 0.14	1095.58 ± 0.25	1920.6 ± 1.6
298.15 K, x1 = 0.1443	–	1108.71 ± 0.28	1968.2 ± 1.6
298.15 K, x1 = 0.1965	1.01 ± 0.061	1119.53 ± 0.41	1974.6 ± 1.7
298.15 K, x1 = 0.2705	–	1128.8 ± 0.65	1970.9 ± 2
298.15 K, x1 = 0.2957	0.405 ± 0.024	1130.7 ± 0.75	1971.5 ± 2.1
298.15 K, x1 = 0.3897	–	1135.35 ± 1.2	1957.2 ± 2.5
298.15 K, x1 = 0.5347	0.108 ± 0.007	1137.68 ± 2.1	1941.6 ± 3.1
298.15 K, x1 = 0.6044	0.089 ± 0.005	1138.43 ± 2.7	1937.4 ± 3.4
298.15 K, x1 = 0.6931	0.046 ± 0.003	1138.13 ± 3.4	1927.3 ± 3.8
298.15 K, x1 = 0.7565	–	1138.58 ± 4.1	1923.3 ± 4
298.15 K, x1 = 0.798	0.029 ± 0.002	–	–
298.15 K, x1 = 0.8375	–	1139.15 ± 5	1922.5 ± 4.4
298.15 K, x1 = 0.8996	0.017 ± 0.001	1139.75 ± 5.7	1922.9 ± 4.7
298.15 K, x1 = 0.94	–	1140.05 ± 6.2	1921.7 ± 4.9
298.15 K, x1 = 0.9611	–	1140.19 ± 6.5	1919.6 ± 5
303.15 K, x1 = 0.0258	3.68 ± 0.22	1033.07 ± 0.42	1669 ± 2.2
303.15 K, x1 = 0.0511	3.86 ± 0.23	1058.28 ± 0.4	1779.1 ± 2.1
303.15 K, x1 = 0.074	3.23 ± 0.19	1077.82 ± 0.3	1858.9 ± 1.7
303.15 K, x1 = 0.1027	2.57 ± 0.15	1092.58 ± 0.25	1910.5 ± 1.6
303.15 K, x1 = 0.1443	–	1105.56 ± 0.28	1954.1 ± 1.6
303.15 K, x1 = 0.1965	1.19 ± 0.071	1116.28 ± 0.4	1961.5 ± 1.7
303.15 K, x1 = 0.2705	–	1125.54 ± 0.65	1958 ± 2
303.15 K, x1 = 0.2957	0.497 ± 0.03	1127.45 ± 0.75	1957.9 ± 2.1
303.15 K, x1 = 0.3897	–	1132.15 ± 1.2	1944.6 ± 2.5
303.15 K, x1 = 0.5347	0.145 ± 0.009	1134.46 ± 2.1	1927.8 ± 3.1
303.15 K, x1 = 0.6044	0.106 ± 0.006	1135.19 ± 2.6	1923.5 ± 3.4
303.15 K, x1 = 0.6931	0.059 ± 0.004	1134.84 ± 3.4	1912.9 ± 3.8
303.15 K, x1 = 0.7565	–	1135.3 ± 4	1909.5 ± 4
303.15 K, x1 = 0.798	0.047 ± 0.003	–	–
303.15 K, x1 = 0.8375	–	1135.92 ± 4.9	1908.6 ± 4.4
303.15 K, x1 = 0.8996	0.042 ± 0.003	1136.57 ± 5.7	1908.1 ± 4.7
303.15 K, x1 = 0.94	–	1136.9 ± 6.2	1905.4 ± 4.9
303.15 K, x1 = 0.9611	–	1137.04 ± 6.5	1902.3 ± 5
308.15 K, x1 = 0.0258	4 ± 0.24	–	1671.7 ± 2.1
308.15 K, x1 = 0.0511	4.22 ± 0.25	–	1776 ± 2
308.15 K, x1 = 0.074	3.67 ± 0.22	–	1851.6 ± 1.7
308.15 K, x1 = 0.1027	2.95 ± 0.18	–	1900.3 ± 1.5
308.15 K, x1 = 0.1443	–	–	1940.6 ± 1.6
308.15 K, x1 = 0.1965	1.44 ± 0.087	–	1948.6 ± 1.7
308.15 K, x1 = 0.2705	–	–	1945.2 ± 2
308.15 K, x1 = 0.2957	0.622 ± 0.037	–	1944.6 ± 2.1
308.15 K, x1 = 0.3897	–	–	1932 ± 2.4
308.15 K, x1 = 0.5347	0.194 ± 0.012	–	1914.3 ± 3
308.15 K, x1 = 0.6044	0.138 ± 0.008	–	1909.9 ± 3.4
308.15 K, x1 = 0.6931	0.073 ± 0.004	–	–
308.15 K, x1 = 0.798	0.053 ± 0.003	–	–
308.15 K, x1 = 0.8996	0.056 ± 0.003	–	–
